Patent publication US20230416248A1, “COMPOUNDS AND USES THEREOF” (Foghorn Therapeutics Inc., priority 2020, published 2023)
Like-named read-outs stand apart in the source and are kept apart here.

Key:
BRM = biological target: T1, BRM (Homo sapiens, UniProt P51531); experiment: ATPase catalytic activity of BRM, ADP-Glo in vitro biochemical assay; details: for IC50: 30 nM BRM, 400 μM ATP; for Ratio* (BRG1 IC50 (μM) divided by BRM IC50 (μM)): selectivity ratio BRG1 IC50 / BRM IC50
T1 construct: made in house; host or cells: High Five insect cells
T1 sequence (P51531 whole entry): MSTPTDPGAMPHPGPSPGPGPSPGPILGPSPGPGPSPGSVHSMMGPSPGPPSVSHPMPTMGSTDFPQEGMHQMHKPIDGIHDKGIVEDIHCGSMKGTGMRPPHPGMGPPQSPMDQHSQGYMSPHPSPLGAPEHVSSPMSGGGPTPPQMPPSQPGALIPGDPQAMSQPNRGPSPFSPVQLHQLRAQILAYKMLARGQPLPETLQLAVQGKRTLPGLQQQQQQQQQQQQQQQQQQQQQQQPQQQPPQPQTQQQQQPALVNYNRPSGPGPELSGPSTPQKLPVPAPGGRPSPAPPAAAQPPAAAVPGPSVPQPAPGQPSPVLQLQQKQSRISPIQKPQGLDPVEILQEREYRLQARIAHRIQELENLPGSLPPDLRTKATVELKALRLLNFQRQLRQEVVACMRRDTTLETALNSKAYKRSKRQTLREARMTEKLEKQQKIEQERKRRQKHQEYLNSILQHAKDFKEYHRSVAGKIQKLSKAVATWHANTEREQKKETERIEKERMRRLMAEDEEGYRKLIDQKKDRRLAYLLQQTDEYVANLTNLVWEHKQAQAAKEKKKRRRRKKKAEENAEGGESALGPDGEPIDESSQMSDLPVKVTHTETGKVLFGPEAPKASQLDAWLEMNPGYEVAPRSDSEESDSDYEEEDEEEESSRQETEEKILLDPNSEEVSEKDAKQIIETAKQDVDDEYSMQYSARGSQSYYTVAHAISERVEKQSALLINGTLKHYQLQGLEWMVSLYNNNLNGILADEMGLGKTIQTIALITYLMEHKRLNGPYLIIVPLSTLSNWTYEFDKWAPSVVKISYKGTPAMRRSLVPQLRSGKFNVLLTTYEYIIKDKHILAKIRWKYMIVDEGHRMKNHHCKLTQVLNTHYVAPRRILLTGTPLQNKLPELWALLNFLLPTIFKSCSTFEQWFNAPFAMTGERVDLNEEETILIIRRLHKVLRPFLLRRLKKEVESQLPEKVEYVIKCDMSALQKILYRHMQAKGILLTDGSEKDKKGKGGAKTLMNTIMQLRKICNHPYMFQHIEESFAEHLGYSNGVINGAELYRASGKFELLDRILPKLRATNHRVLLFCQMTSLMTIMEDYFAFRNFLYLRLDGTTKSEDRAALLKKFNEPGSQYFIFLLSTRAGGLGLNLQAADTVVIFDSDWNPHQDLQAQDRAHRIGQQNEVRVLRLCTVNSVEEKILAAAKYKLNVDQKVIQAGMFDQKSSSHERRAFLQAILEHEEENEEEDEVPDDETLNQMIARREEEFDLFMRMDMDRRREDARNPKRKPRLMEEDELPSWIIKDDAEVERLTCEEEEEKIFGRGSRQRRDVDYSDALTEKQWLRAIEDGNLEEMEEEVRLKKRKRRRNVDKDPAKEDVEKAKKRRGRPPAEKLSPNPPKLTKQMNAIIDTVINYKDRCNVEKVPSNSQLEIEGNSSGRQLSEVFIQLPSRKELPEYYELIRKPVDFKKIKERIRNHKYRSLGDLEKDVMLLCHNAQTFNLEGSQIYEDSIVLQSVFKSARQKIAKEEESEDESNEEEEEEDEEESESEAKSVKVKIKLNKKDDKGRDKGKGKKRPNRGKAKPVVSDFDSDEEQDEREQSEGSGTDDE
Outline: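 ADP-Glo luminescence, after depletion of leftover ATP and conversion of ADP, reported the activity. The 1 h room-temperature reaction held 400 μM ATP, 20 nM salmon sperm DNA and 30 nM BRM in 20 mM Tris pH 8, 20 mM MgCl2, 50 mM NaCl, 0.1% Tween-20, 1 mM DTT.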

BRG-1 = biological target: T2, BRG-1 (Homo sapiens, UniProt P51532); experiment: ATPase catalytic activity of BRG-1, ADP-Glo in vitro biochemical assay; details: 30 nM BRG-1, 400 μM ATP, read-out: BRG1 IC50
T2 construct: made in house; host or cells: High Five insect cells
T2 sequence (P51532 whole entry): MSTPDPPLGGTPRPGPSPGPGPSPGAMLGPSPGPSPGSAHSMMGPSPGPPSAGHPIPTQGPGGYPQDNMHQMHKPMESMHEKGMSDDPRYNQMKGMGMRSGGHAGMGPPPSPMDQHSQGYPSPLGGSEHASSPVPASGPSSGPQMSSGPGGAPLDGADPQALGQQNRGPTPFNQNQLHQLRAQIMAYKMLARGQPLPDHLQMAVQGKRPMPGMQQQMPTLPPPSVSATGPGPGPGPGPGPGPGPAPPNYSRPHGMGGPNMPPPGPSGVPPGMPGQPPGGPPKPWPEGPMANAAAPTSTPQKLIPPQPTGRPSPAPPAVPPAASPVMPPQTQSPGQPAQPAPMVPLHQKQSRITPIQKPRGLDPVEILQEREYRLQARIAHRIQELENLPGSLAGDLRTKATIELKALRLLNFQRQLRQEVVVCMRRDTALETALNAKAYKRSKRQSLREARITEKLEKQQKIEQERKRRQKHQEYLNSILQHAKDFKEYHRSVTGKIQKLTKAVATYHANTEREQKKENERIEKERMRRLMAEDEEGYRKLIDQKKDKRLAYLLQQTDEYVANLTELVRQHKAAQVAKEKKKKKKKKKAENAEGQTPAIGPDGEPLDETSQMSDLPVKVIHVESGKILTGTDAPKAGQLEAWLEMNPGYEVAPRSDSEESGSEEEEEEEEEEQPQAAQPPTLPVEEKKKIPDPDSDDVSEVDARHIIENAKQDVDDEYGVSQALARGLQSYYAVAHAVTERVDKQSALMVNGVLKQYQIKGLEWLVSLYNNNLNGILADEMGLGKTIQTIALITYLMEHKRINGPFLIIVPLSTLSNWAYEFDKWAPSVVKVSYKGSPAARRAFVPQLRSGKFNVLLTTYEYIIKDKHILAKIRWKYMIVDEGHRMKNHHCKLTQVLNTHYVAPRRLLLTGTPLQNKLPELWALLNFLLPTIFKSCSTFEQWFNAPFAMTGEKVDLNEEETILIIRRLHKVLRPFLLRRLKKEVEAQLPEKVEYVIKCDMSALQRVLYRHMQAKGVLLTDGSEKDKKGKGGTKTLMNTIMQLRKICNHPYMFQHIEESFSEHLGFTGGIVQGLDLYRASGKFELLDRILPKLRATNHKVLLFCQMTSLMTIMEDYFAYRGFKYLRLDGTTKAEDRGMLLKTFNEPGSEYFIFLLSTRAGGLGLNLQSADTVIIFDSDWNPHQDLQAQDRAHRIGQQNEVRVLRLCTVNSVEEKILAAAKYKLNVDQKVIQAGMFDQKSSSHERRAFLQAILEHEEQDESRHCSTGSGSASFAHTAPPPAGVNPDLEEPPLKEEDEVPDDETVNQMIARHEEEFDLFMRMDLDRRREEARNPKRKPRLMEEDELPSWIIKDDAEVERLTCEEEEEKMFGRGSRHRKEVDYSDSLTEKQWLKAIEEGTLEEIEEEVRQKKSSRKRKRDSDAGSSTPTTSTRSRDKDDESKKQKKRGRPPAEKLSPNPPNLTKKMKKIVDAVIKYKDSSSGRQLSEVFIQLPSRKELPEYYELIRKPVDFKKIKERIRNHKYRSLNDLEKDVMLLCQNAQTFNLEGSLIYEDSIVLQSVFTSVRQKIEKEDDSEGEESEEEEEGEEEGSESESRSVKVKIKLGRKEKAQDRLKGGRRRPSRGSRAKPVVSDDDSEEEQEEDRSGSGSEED
Outline: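 In this in vitro format, BRG-1 hydrolysis product ADP is detected via a two-step ADP-Glo workup (ATP removal, then ADP-to-ATP conversion with luciferase detection) followed by a luminescence read.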

[1] = ATPase catalytic activity, ADP-Glo

Row | Compound | IC50 (BRM; ADP-Glo ATPase assay) [nM] | Ratio* (BRM; ratio BRG1 IC50 / BRM IC50) | IC50 (BRG-1; ADP-Glo ATPase assay) [nM] | Ratio* (BRG1 IC50 (μM) divided by BRM IC50 (μM)) (BRM) | IC50 (BRM; [1]) [nM] | Ratio* (BRM; ratio of BRG1 IC50 to BRM IC50) | IC50 (BRG-1; [1]) [nM]
1 | CC(c1cccc(-c2ccc3cnc(CNC(=O)c4ccc5c(c4)S(=O)(=O)CCOC5)cc3n2)n1)C(F)F (stereo not shown) [Compound 203] | 154 |  | 1580 | 10.23 |  |  | 
2 | O=C(NCc1cc2nc(-c3cccc(N4CCCOCC4)n3)ccc2cn1)c1ccc2c(c1)S(=O)(=O)CCOC2 [Compound 78] | 19 |  | 198 | 10.42 |  |  | 
3 | O=C(NCc1cc2nc(N3CCc4ccccc43)ccc2cn1)c1ccc2c(c1)S(=O)(=O)CCOC2 [Compound 50] | 147 |  | 1520 |  |  |  | 
4 | CC(C)Oc1cccc(-c2ccc3cnc(CNC(=O)c4ccc5c(c4)S(=O)(=O)CCOC5)cc3n2)n1 [Compound 165] | 116 |  | 2120 | 18.39 |  |  | 
5 | CC(=O)N1CCOc2c(-c3ccc4cnc(CNC(=O)c5ccc6c(c5)S(=O)(=O)CCOC6)cc4n3)cccc21 [Compound 185] | 357 |  | 1340 | 3.75 |  |  | 
6 | C[C@H]1COCc2ccc(C(=O)NCc3cc4nc(-c5cccc([C@@H]6CC6(F)F)n5)ccc4cn3)cc2S1(=O)=O [Compound 393] |  |  |  |  | 19 | 33.52 | 638
7 | O=C(NCc1cc2nc(-c3cccc(N4CCCC4)n3)ccc2cn1)c1ccc2c(c1)S(=O)(=O)CCOC2 [Compound 220] | 16 |  | 144 | 9.02 |  |  | 
8 | Cc1ccc(C(=O)NCc2cc3nc(-c4cncc(C5CC5)n4)ccc3cn2)cc1S(=O)(=O)N(C)C [Compound 283] | 197 |  | 3480 | 17.67 |  |  | 
9 | CS(=O)(=O)c1cc(C(=O)NCc2cc3nc(-c4cccc(N5CC[C@@H]6COCC6C5)n4)ccc3cn2)ccc1C(F)F (stereo partly shown) [Compound 86] | 22.5 |  | 324 | 14.43 |  |  | 
10 | COc1cc(Cl)ccc1-c1ccc2cnc(CNC(=O)c3ccc4c(c3)S(=O)(=O)[C@@H](C)COC4)cc2n1 [Compound 386] |  |  |  |  | 9.2 | 15.24 | 140
11 | C[C@@H]1CN(c2cccc(-c3ccc4cnc(CNC(=O)c5ccc6c(c5)S(=O)(=O)CCCO6)cc4n3)n2)C[C@H](C)O1 [Compound 53] | 11.7 |  | 116 |  |  |  | 
12 | O=C(NCc1cc2nc(-c3cncc(C4CC4)n3)ccc2cn1)c1ccc2c(c1)S(=O)(=O)NCCC2 [Compound 293] | 223 |  | 2410 | 10.84 |  |  | 
13 | CCc1cc(C(=O)NCc2cc3nc(-c4cccc(N5C[C@@H](C)O[C@@H](C)C5)n4)ccc3cn2)cc2c1COCCS2(=O)=O [Compound 59] | 73 |  | 780 | 10.68 |  |  | 
14 | CS(=O)(=O)c1cc(F)cc(C(=O)NCc2cc3nc(-c4cncc(C5CC5)n4)ccc3cn2)c1 [Compound 295] | 385 |  | 5000 | 12.98 |  |  | 
15 | C[C@@H]1CN(c2cccc(-c3ccc4cnc(CNC(=O)c5cc(C(F)F)c6c(c5)S(=O)(=O)CCOC6)cc4n3)n2)C[C@H](C)O1 [Compound 355] |  |  |  |  | 8.7 | 7.36 | 63.9
16 | O=C(NCc1cc2nc(N3CCCc4ccncc43)ccc2cn1)c1ccc2c(c1)S(=O)(=O)CCOC2 [Compound 52] | 76 |  | 716 | 9.43 |  |  | 
17 | CS(=O)(=O)c1cc(C(=O)NCc2cc3nc(-c4cccc(N5CC[C@@H]6OCC[C@H]6C5)n4)ccc3cn2)ccc1Cl [Compound 99] | 78.7 |  | 884 | 11.24 |  |  | 
18 | O=C(NCc1cc2nc(-c3cccc(C4CC4)n3)ccc2nn1)c1ccc2c(c1)S(=O)(=O)CCOC2 [Compound 253] | 20.7 |  | 398 | 19.26 |  |  | 
19 | O=C(NCc1cc2nc(-c3ccc4c(n3)OCC4)ccc2cn1)c1ccc2c(c1)S(=O)(=O)CCOC2 [Compound 139] | 432 |  | 2070 | 4.81 |  |  | 
20 | O=C(NCc1cc2nc(-c3cccc(OC4COC4)c3)ccc2cn1)c1ccc2c(c1)S(=O)(=O)CCOC2 [Compound 242] | 286 |  | 3170 | 11.06 |  |  | 
21 | CO[C@@H]1CN(c2cccc(-c3ccc4cnc(CNC(=O)c5ccc6c(c5)S(=O)(=O)CCOC6)cc4n3)n2)C[C@@H]1F [Compound 333] |  |  |  |  | 17.1 | 13.29 | 227
22 | COCCOc1cccc(-c2ccc3cnc(CNC(=O)c4ccc5c(c4)S(=O)(=O)CCOC5)cc3n2)c1 [Compound 135] | 112 |  | 1060 | 9.48 |  |  | 

Now from value to compound:

Row | IC50 (BRM; ADP-Glo ATPase assay) [nM] | Ratio* (BRM; ratio BRG1 IC50 / BRM IC50) | IC50 (BRG-1; ADP-Glo ATPase assay) [nM] | Ratio* (BRG1 IC50 (μM) divided by BRM IC50 (μM)) (BRM) | IC50 (BRM; [1]) [nM] | Ratio* (BRM; ratio of BRG1 IC50 to BRM IC50) | IC50 (BRG-1; [1]) [nM] | Compound
23 | 35.2 | 33.09 | 1160 |  |  |  |  | C[C@H]1C[C@H]1c1ccc2c(n1)N(c1ccc3cnc(CNC(=O)c4ccc5c(c4)S(=O)(=O)CCOC5)cc3n1)CCO2 [Compound 831]
24 |  |  |  |  | 22 | 10.98 | 242 | O=C(NCc1cc2nc(N3CCCc4cc(F)cnc43)ccc2cn1)c1ccc2c(c1)S(=O)(=O)CCOC2 [Compound 591]
25 |  |  |  |  | 9.8 | 17.38 | 170 | O=C(NCc1cc2nc(N3CCOc4cc(Cl)cnc43)ccc2cn1)c1ccc2c(c1)S(=O)(=O)CCOC2 [Compound 645]
26 | 432 | 9.13 | 3940 |  |  |  |  | O=C(NCc1cc2nc(N3CCn4ncc(C5CC5)c4C3)ccc2cn1)c1ccc2c(c1)S(=O)(=O)CCOC2 [Compound 744]
27 |  |  |  |  | 7.8 | 15.21 | 119 | Cc1cc2c(nc1C)N(c1ccc3cnc(CNC(=O)c4ccc5c(c4)S(=O)(=O)CCOC5)cc3n1)CCC2 [Compound 463]
28 |  |  |  |  | 29.3 | 33.79 | 991 | O=C(NCc1cc2nc(N3CCCc4ccc(COC5CC5)nc43)ccc2cn1)c1ccc2c(c1)S(=O)(=O)CCOC2 [Compound 598]
29 |  |  |  |  | 51.3 | 21.62 | 1110 | C[C@@H]1CN(c2nccc(-c3ccc4cnc(CNC(=O)c5ccc6c(c5)S(=O)(=O)[C@@H](C)COC6)cc4n3)c2F)C[C@H](C)O1 [Compound 610]
30 | 45.1 | 52.48 | 2370 |  |  |  |  | O=C(NCc1cc2nc(N3CCOc4ccc(C5CC(F)(F)C5)nc43)ccc2cn1)c1ccc2c(c1)S(=O)(=O)CCOC2 [Compound 828]
31 | 9.3 | 9.97 | 92.5 |  |  |  |  | COc1cc(C)nc2c1CCCN2c1ccc2cnc(CNC(=O)c3ccc4c(c3)S(=O)(=O)CCOC4)cc2n1 [Compound 732]
32 |  |  |  |  | 9.8 | 19.48 | 190 | Cc1cnc2c(c1)OCCN2c1ccc2cnc(CNC(=O)c3cc(Cl)c4c(c3)S(=O)(=O)CCOC4)cc2n1 [Compound 552]
33 |  |  |  |  | 16.1 | 9.43 | 152 | C[C@@H]1CN(c2cccc(-c3ccc4cnc(CNC(=O)c5cc(Cl)c6c(c5)S(=O)(=O)[C@@H](C)COC6)cc4n3)n2)C[C@H](C)O1 [Compound 431]
34 |  |  |  |  | 32.3 | 14.01 | 453 | Cc1cnc2c(n1)CCCN2c1ccc2cnc(CNC(=O)c3ccc4c(c3)S(=O)(=O)CCOC4)cc2n1 [Compound 440]
35 | 5.9 | 5.10 | 30.3 |  |  |  |  | O=C(NCc1cc2cc(N3CCCc4cc(-c5cn[nH]c5)ccc43)ccc2cn1)c1ccc2c(c1)S(=O)(=O)CCOC2 [Compound 789]
36 | 8.3 | 22.29 | 185 |  |  |  |  | C[C@H]1C[C@@H]1c1ccc2c(n1)N(c1ccc3cnc(CNC(=O)c4ccc5c(c4)S(=O)(=O)CCOC5)cc3n1)CCO2 [Compound 810]
37 |  |  |  |  | 10 | 8.49 | 85 | COc1c(C)cnc2c1CCCN2c1ccc2cnc(CNC(=O)c3ccc4c(c3)S(=O)(=O)CCOC4)cc2n1 [Compound 629]
38 |  |  |  |  | 156 | 18.87 | 2950 | C[C@@H]1CN(c2cccc(-c3ccc4cnc(CNC(=O)c5cc(F)c6c(c5)S(=O)(=O)[C@H](C)CN6C)cc4n3)n2)C[C@H](C)O1 [Compound 642]
39 |  |  |  |  | 230 | 20.44 | 4690 | C[C@@H]1CN(c2cccc(-c3ccc4cnc(CNC(=O)c5ccc(CC(C)(F)F)c(S(C)(=O)=O)c5)cc4n3)n2)C[C@H](C)O1 [Compound 474]
40 |  |  |  |  | 109 | 17.41 | 1890 | O=C(NCc1cc2nc(N3CCOc4ccc(C(F)(F)F)nc43)ccc2cn1)c1ccc2c(c1)S(=O)(=O)CCOC2 [Compound 583]
41 |  |  |  |  | 615 | 7.16 | 4400 | O=C(NCc1cc2nc(N3CCCC4CCCCC43)ccc2cn1)c1ccc2c(c1)S(=O)(=O)CCOC2 (stereo not shown) [Compound 640]
42 | 24.7 | 11.83 | 292 |  |  |  |  | O=C(NCc1cc2nc(N3CCCc4cc(F)c(OCC5COC5)cc43)ccc2cn1)c1ccc2c(c1)S(=O)(=O)CCOC2 [Compound 726]
43 |  |  |  |  | 5.4 | 15.34 | 82.3 | C[C@H]1CN(c2cccc(-c3ccc4cnc(CNC(=O)c5ccc(Cl)c(S(C)(=O)=O)c5)cc4n3)n2)CC[C@@H]1O [Compound 575]
